Test results reported in paper PMC10976043, “Function and Mechanism of Antiviral Wasp Venom Peptide Protopolybia-MP III and Its Derivatives against HSV-1” (Toxins, 2024).
Where two headings read alike, the source gives them in different places. Ends that are not written are not given here.

Columns and labels:
HSV-1 virion = assay: HSV-1 free virion infectivity assay, qPCR; type: cell-based, herpes simplex virus type 1; settings: mutant comparison (Figure 7C): 5 μg/mL coincubated with HSV-1 (MOI 1) at 37 °C for 1 h, then Vero cells infected, 24 h
Experimental: Figure 5 Protopolybia-MP III destroys the integrity of HSV-1 free virions. (A) Schematic diagram for studying the effect of Protopolybia-MP III on HSV-1 free virion infectivity. (B) Effects of Protopolybia-MP III on HSV-1 free virion infectivity at different temperatures. HSV-1 (MOI = 1) and 20 μg/mL Protopolybia-MP III or PBS were coincubated at 4 °C, 22 °C, and 37 °C for 1 h, and then Vero cells were infected as described in (A). After 24 h, cells were collected, and intracellular HSV-1 RNA was analyzed by qPCR. (C) Effects of different concentrations of Protopolybia-MP III on HSV-1 free virion infectivity. HSV-1 (MOI = 1) and 1 or 10 μg/mL Protopolybia-MP III or PBS were coincubated at 37 °C for 1 h, and then Vero cells were infected as described in (A). After 24 h, cells were collected, and intracellular HSV-1 RNA was analyzed by qPCR. (D,E) The effect of Protopolybia-MP III on HSV-1 free virion integrity. HSV-1 and 20 μg/mL Protopolybia-MP III or PBS were coincubated at 37 °C for 1 h. Then, after centrifuging for 2 h at 40,000 rpm at 4 °C, the contents of HSV-1 gB in the supernatant and precipitate were detected by Western blotting (D). In addition, the structure of HSV-1 virions after incubation with Protopolybia-MP III was observed by electron microscopy. The red arrow points to a destroyed HSV-1 virion. *** p < 0.001.
(§1) Figure 7 Antiviral activity analysis of Protopolybia-MP III mutants. (A) Amino acid sequences of Protopolybia-MP III mutants. Identical amino acids among Protopolybia-MP I, Protopolybia-MP III, and its mutants are marked in blue, and different amino acids are marked in red. (B) Suppression of Protopolybia-MP I, Protopolybia-MP III, and its mutants on intracellular HSV-1 content. Cells were preincubated with 20 μg/mL peptides or PBS for 1 h and then infected with HSV-1 at an MOI of 1. After 24 h, the cells were collected. Intracellular HSV-1 ICP0 protein levels were analyzed by Western blotting. The ratios of HSV-1 ICP0 to GAPDH were calculated by ImageJ software. (C) Inhibition of HSV-1 free virion infectivity by Protopolybia-MP I, Protopolybia-MP III, and its mutants. HSV-1 (MOI = 1) and 5 μg/mL peptides or PBS were coincubated at 37 °C for 1 h, and the mixtures were then used to infect Vero cells. After 24 h, cells were collected, and intracellular HSV-1 RNA was analyzed by qPCR. ns, no significance. * p < 0.05. ** p < 0.01. *** p < 0.001.
(§2) Cells were collected and lysed using TRIzol reagent (Beyotime Biotechnology, Shanghai, China) to release the intracellular total RNA, followed by precipitation with isopropanol. The first-strand cDNA was reverse-transcribed by the HiScript III 1st Strand cDNA Synthesis Kit (+gDNA wiper) (Vazyme, Nanjing, China). The cDNA was quantitated by qPCR with primers using Taq Pro Universal SYBR qPCR Master Mix (Vazyme). The HSV-1 primers were 5′-[…]-3′ (sense) and 5′-[…]-3′ (antisense). The monkey GAPDH primers were 5′-[…]-3′ (sense) and 5′-[…]-3′ (antisense). The human GAPDH primers were 5′-[…]-3′ (sense) and 5′-[…]-3′ (antisense). qPCR experiments were performed on a Bio-Rad CFX96 Touch (Pleasanton, CA, USA) according to the manufacturer’s instructions.

HSV-1 ICP0 = type: cell-based, herpes simplex virus type 1; settings: for inhibition rate on intracellular HSV-1 ICP0 protein expression: ICP0, 1 h; for inhibition rate on intracellular HSV-1 ICP0 expression level: ICP0, 24 h
Experimental: (§3) (A) Amino acid sequence of Protopolybia-MP III. Basic residues are labeled blue, and acidic residues are labeled red. (B,C) Suppression of intracellular HSV-1 infection by Protopolybia-MP III. Cells were preincubated with Protopolybia-MP III at different concentrations or PBS for 1 h and then infected with HSV-1 at a multiplicity of infection (MOI) of 1. After 24 h, the cells were collected. Intracellular HSV-1 RNA was analyzed by qPCR (B), and intracellular HSV-1 ICP0 protein levels were analyzed by Western blotting (C). (D) Suppression of Protopolybia-MP III on extracellular HSV-1 particles. Cells were treated with Protopolybia-MP III at different concentrations or PBS for 24 h, and then the supernatant was collected and evaluated in a plaque formation assay. (E) Cytotoxicity of Protopolybia-MP III to Vero cells. Cells were treated with Protopolybia-MP III or PBS at different concentrations for 24 h, and then the cytotoxicity was determined by CCK8 assay. * p < 0.05. ** p < 0.01. *** p < 0.001.
(§4) Figure 2 Protopolybia-MP III inhibits HSV-1 replication in human cell lines. (A) Cytotoxicities of Protopolybia-MP III to A549 cells, HCEC, and SK-N-MC. Cells were treated with Protopolybia-MP III at different concentrations or PBS for 24 h, and then cytotoxicities were determined by the CCK8 assay. (B,C) Suppression of intracellular HSV-1 infection by Protopolybia-MP III in A549 cells, HCEC, and SK-N-MC. Cells were preincubated with Protopolybia-MP III at different concentrations or PBS for 1 h and then infected with HSV-1 at an MOI of 1. After 24 h, the cells were collected. Intracellular HSV-1 RNA was analyzed by qPCR (B), and intracellular HSV-1 ICP0 protein expression levels were analyzed by Western blotting (C). (D) Inhibition of Protopolybia-MP III on extracellular HSV-1 particles in A549 cells, HCEC, and SK-N-MC. Cells were treated with Protopolybia-MP III at different concentrations or PBS for 24 h, and then the supernatant was collected and evaluated in a plaque formation assay. * p < 0.05. ** p < 0.01. *** p < 0.001.
as §1
(§5) HSV-1 was kindly provided by Professor Zhijian Cao of Wuhan University. Cells were infected with HSV-1 at an MOI of 1 for 24 h. Then, cells were collected for qPCR, Western blotting, and immunofluorescence assays, and the extracellular supernatant was used for plaque formation assays.
Cells were collected and lysed in 1% SDS. The cell lysate was heated at 100 °C for 20 min and centrifuged at 12,000 rpm at 4 °C for 15 min, and then the supernatant was collected and assayed with a BCA Protein Quantification Kit (Vazyme). Equal amounts of protein were separated using a PAGE Gel Fast Preparation Kit (10%) (Epizyme Biotech, Wuhan, China) and transferred to nitrocellulose (NC) membranes (Millipore, Wuhan, China). […]

HSV-1 [1] = type: cell-based, herpes simplex virus type 1; settings: Vero cells, preincubated 1 h, HSV-1 MOI 1, 24 h, qPCR
Experimental: as §3, §4, §5, §2

HSV-1 [2] = assay: Plaque formation assay of extracellular HSV-1 particles; type: cell-based, herpes simplex virus type 1; settings: Vero cells treated 24 h, supernatant in plaque formation assay
Experimental: as §3, §4
Vero cells seeded in a 24-well plate at 100% confluence were infected with virus diluent or supernatant. After 1 h of absorption at 37 °C, the supernatant was removed. Cells were washed three times with PBS and replenished with a plaque-covering layer (MEM with 2% FBS and 1.5% carboxymethylcellulose). After an incubation period of approximately 3 days, the cells were stained with 1% crystal violet containing 10% methanol for 0.5 h. Then, the plaques were counted, and the viral titer was calculated according to the plaque number and dilution.

Vero cells = assay: CCK8 cytotoxicity assay, Vero cells; type: cell-based, monkey; settings: 40 μg/mL, 24 h
Experimental: as §3
Cells were seeded in a 96-well plate (7000–10,000 cells per well) and cultured at 37 °C overnight. Peptides in a series of concentrations were added to the medium, and cells were then incubated at 37 °C for 24 h. […] Finally, the absorbance was measured at 450 nm using a microplate reader (BioTek, Winooski, VT, USA).

Substance | inhibition rate of HSV-1 free virion infectivity (HSV-1 virion) [%] | inhibition rate on intracellular HSV-1 ICP0 protein expression (HSV-1 ICP0; 20 μg/mL) [%] | also measured
INWLKLGKKVIAAL-NH2 [MP III-6] | 95.5 | 63.2 | 
INWLKLGKKVSDIL-NH2 [MP III-13] |  | 60.2 | 
INWLKLGKKVIDIL-NH2 [MP III-7] | 100 | 100 | 
INWLKLGKAVIAAL-NH2 [MP III-3] | 58.3 | 94 | 
INWLKLGKKVIDAL-NH2 [MP III-1] | 59.7 | 53.7 | 
INWLKLGKKVSDAL-NH2 [MP III-5] |  | 74.8 | 
INWLKLGKKVSAAL-NH2 [MP III-14] | 25.3 | 90.8 | 
INWLKLGKAVSDIL-NH2 [MP III-9] | 63.6 | 63.8 | 
INWLKLGKKVIAIL-NH2 [MP III-12] | 92.4 | 76.8 | 
INWLKLGKAVSAAL-NH2 [MP III-8] |  | 66 | 
INWLKLGKAVSDAL-NH2 [MP III-2] | 27.4 | 20.6 | 
INWLKLGKKVSAIL-NH2 [Protopolybia-MP I] |  |  | inhibition rate on intracellular HSV-1 RNA (HSV-1 [1]; 5 μg/mL peptide): no effect; inhibition rate on intracellular HSV-1 RNA (HSV-1 [1]; 10 μg/mL peptide): no effect; inhibition rate on intracellular HSV-1 RNA (HSV-1 [1]; 20 μg/mL peptide): no effect; extracellular HSV-1 particles (plaques) (HSV-1 [2]): almost no inhibitory effect; cytotoxicity to Vero cells (Vero cells): almost nontoxic; inhibition rate on intracellular HSV-1 ICP0 expression level (HSV-1 ICP0; 5 μg/mL): 17%; inhibition rate on intracellular HSV-1 ICP0 expression level (HSV-1 ICP0; 10 μg/mL): 17%; inhibition rate on intracellular HSV-1 ICP0 expression level (HSV-1 ICP0; 20 μg/mL): 25%
INWLKLGKAVSAIL-NH2 [MP III-11] | 64.7 | 73.4 | 
INWLKLGKAVIDIL-NH2 [MP III-4] |  | 99.4 | 
INWLKLGKAVIAIL-NH2 [MP III-10] | 100 | 100 | 
